Data as given in patent publication US20050165104A1, “Biocidal agents and veterinary methods” (priority 2002, published 2005).
Read-outs that look alike come from different tables or passages of the source. Marks after values point to notes of the source that are not given here.

How the values were obtained:
Aspergillus fumigatus = test: Antimicrobial Diffusion Test (blood agar plate, zone of inhibition); format: cell-based
Method: (§1) The Antimicrobial Diffusion Test is used to determine the ability of a compound to inhibit growth of an organism. During the course of the test, each compound is treated as an unknown solution with an assigned number. After the data have been collected, the identity of the compound is assigned. In the test, a blood agar plate is inoculated with a known stock organism (fungus or bacteria). One drop of a numbered solution is applied to a freshly inoculated agar plate. A single numbered solution is applied per organism on a plate. The inoculated plate is examined on a daily basis for growth of the organism.
(§2) Areas of no microbial growth, or zones of inhibition are measured in millimeters and documented. If the plate is entirely covered with organism growth, there is no measurable zone of inhibition. After all zones of inhibition with the corresponding organisms and the solution number tested for sensitivity have been documented, each solution number is replaced by the correct solution name. The zones of inhibition are then used to establish relative in vitro resistance and sensitivity of the organism to the solution.

Beta Streptococcus = test: as above; format: cell-based; conditions: for zone of inhibition at 10000 µM / zone of inhibition at 100000 µM: Streptococcus, read-out: Inhibition, Beta Strep (zone of inhibition / relative potency); for zone of inhibition at 10000 µM: 0.01M (extracts: 0.01M total components)
Method: as §1, §2

Candida albicans = test: as above; format: cell-based
Method: as §1, §2

Escherichia coli = test: as above; format: cell-based
Method: as §1, §2

Staphylococcus aureus = test: as above; format: cell-based
Method: as §1, §2

Trichophyton rubrum = test: as above; format: cell-based
Method: as §1, §2

[1] = pH of the tested solution; format: physicochemical
[2] = test system: Candida albicans, Staphylococcus aureus, Beta Streptococcus, Escherichia coli, Aspergillus fumigatus, and Trichophyton rubrum; test: Antimicrobial Diffusion Test, all organisms tested; format: cell-based; conditions: for specificity of inhibitory activities over the organisms tested (in words): summary of Table 1
Method: as §1, §2
Table 1 provides data comparing the efficacy of a number of different antimicrobial compounds of the present invention. Compounds were assayed at varying concentrations using the Antimicrobial Diffusion Test described above. Summary for data on the following compounds is listed: 3-n-propylphenol, 3-pentylphenol, 5-propylresorcinol, 3-isobutylphenol, 4-hexylresorcinol, phenol, phenylacetic acid, 3-hydroxoctanoic acid, a reconstituted metapleural gland secretion from Atta sexdens worker ant, a reconstituted metapleural gland secretion from Atta sexdens soldier ant, a reconstituted metapleural gland secretion from Atta cephalotes worker ant, a reconstituted metapleural gland secretion from Atta cephalotes soldier ant, metapleural gland secretion from C. deformis, Mycocide, Tineacide, and Penlac. […]

[3] = 0.1M (extracts: 0.1M total components)
[4] = 0.1M (extracts: 0.1M total components), higher number = greater inhibition
[5] = 0.1M (extracts: 0.1M total components), value unmarked
[6] = test solution 0.01M (extracts: 0.01M total components)
[7] = test solution 0.1M (extracts: 0.1M total components)
[8] = 0.01M (extracts: 0.01M total components)
[9] = 0.01M, value marked * (footnote not given)
[10] = 0.1M (extracts: 0.1M total components), value marked ** (footnote not given)
[11] = 0.1M, value marked * (footnote not given)

| SMILES | Inhibition, Asp fumigatus (zone of inhibition / relative potency) (Aspergillus fumigatus; [3]) | zone of inhibition at 10000 µM (Beta Streptococcus) | zone of inhibition at 100000 µM (Beta Streptococcus; [3]) | Inhibition, Candida Albicans (zone of inhibition / relative potency) (Candida albicans; [4]) | Inhibition, E. coli (zone of inhibition / relative potency) (Escherichia coli; [3]) | Inhibition, Staph aureus (zone of inhibition / relative potency) (Staphylococcus aureus; [3]) | pH [1, 6] | pH [1, 7] | Inhibition, Candida Albicans (zone of inhibition / relative potency) (Candida albicans; [8]) | Inhibition, T. rubrum (zone of inhibition / relative potency) (Trichophyton rubrum; [9]) | Inhibition, T. rubrum (zone of inhibition / relative potency) (Trichophyton rubrum; [11]) | other results |
| --- | --- | --- | --- | --- | --- | --- | --- | --- | --- | --- | --- | --- |
| CCCCCCCC(O)CC(=O)O (centres unmarked) [3-hydroxydecanoic acid] | 13 mm | 12 mm | 11 mm | 15 mm | 13 mm | 12 mm | 6.5 | 6 |  |  |  | Inhibition, T. rubrum (zone of inhibition / relative potency) (Trichophyton rubrum; [5]): 12 mm |
| CCCCCc1cccc(O)c1 [3-pentylphenol] | 25 mm | 15 mm | 18 mm | 21 mm | 15 mm | 18 mm | 6.5 | 6.5 | 15 mm | 16* mm | 65 mm | Inhibition, Asp fumigatus (zone of inhibition / relative potency) (Aspergillus fumigatus; 0.01M): 9 mm; inhibition of Aspergillus fumigatus growth (in words) (Aspergillus fumigatus; 0.1 M, FIG. 5): effective at inhibiting Aspergillus fumigatus growth; Inhibition, E. coli (zone of inhibition / relative potency) (Escherichia coli; 0.01M): 16 mm; Inhibition, Staph aureus (zone of inhibition / relative potency) (Staphylococcus aureus; 0.01M): 14 mm; Inhibition, T. rubrum (zone of inhibition / relative potency) (Trichophyton rubrum; [10]): 45 mm; side-by-side comparison against Penlac 0.1M on Trichophyton rubrum (in words) (Trichophyton rubrum; 0.1M each): unexpectedly superior; spectrum of effectiveness on the microorganisms tested (in words) ([2]; 0.1M, Table 1 row 3): exceptional broad spectrum effectiveness; specificity of inhibitory activities over the organisms tested (in words) [2]: ability to inhibit growth of all organisms tested |
| CCCc1cccc(O)c1 [3-n-propylphenol] | 10 mm |  | 15 mm | 13 mm | 17 mm | 14 mm | 6.5 | 6.5 | 13 mm | 12* mm | 21 mm | Inhibition, T. rubrum (zone of inhibition / relative potency) (Trichophyton rubrum; [10]): 14 mm; specificity of inhibitory activities over the organisms tested (in words) [2]: ability to inhibit growth of all organisms tested |
| CCCCCCc1ccc(O)cc1O [4-hexylresorcinol] | 20 mm | 16 mm | 17 mm | 20 mm | 15 mm | 15 mm | 6.5 | 6.5 | 19 mm | 29* mm | 38* mm | Inhibition, Asp fumigatus (zone of inhibition / relative potency) (Aspergillus fumigatus; 0.01M): 16 mm; Inhibition, E. coli (zone of inhibition / relative potency) (Escherichia coli; 0.01M): 17 mm; Inhibition, Staph aureus (zone of inhibition / relative potency) (Staphylococcus aureus; 0.01M): 16 mm |
| O=C(O)Cc1c[nH]c2ccccc12 [indoleacetic acid] |  |  | 6 mm |  |  |  |  |  |  |  |  |  |
| CCCCCCCCCC(O)CC(=O)O (centres unmarked) [3-hydroxydodecanoic acid] | 7 mm |  | 10 mm | 8 mm | 10 mm | 9 mm | 6.5 | 6 |  |  |  | Inhibition, T. rubrum (zone of inhibition / relative potency) (Trichophyton rubrum; 0.01M, value unmarked): 10 mm; Inhibition, T. rubrum (zone of inhibition / relative potency) (Trichophyton rubrum; [5]): 14 mm |
| CCCc1cc(O)cc(O)c1 [5-propylresorcinol] |  |  |  | 14 mm | 15 mm |  |  | 6.5 |  |  | 14* mm | zone of inhibition at 100000 µM (Beta Streptococcus): 14 mm |
| CCCCCC(O)CC(=O)O (centres unmarked) [3-hydroxoctanoic acid] |  |  |  | 12 mm | 13 mm |  |  | 6 |  |  |  | Inhibition, Beta Strep (zone of inhibition / relative potency) (Beta Streptococcus; [3]): 12 mm |
| CCCCCc1cc(O)cc(O)c1 [5-pentylresorcinol] | 20 mm |  | 20 mm | 19 mm | 17 mm | 16 mm |  | 6.5 |  |  | 47* mm |  |
